From publication PMC6423584, “New sesquiterpenoids from the South China Sea soft corals Clavularia viridis and Lemnalia flava” (Beilstein Journal of Organic Chemistry, 2019) come the findings set out here.

For assay [1], the system named is NF-κB signaling pathway in stable HEK293/NF-κB cells. The experiment in a line: NF-κB signaling pathway inhibitory activity assay (luciferase reporter, TNF-α stimulation). It is filed as cell-based. Particulars: Homo sapiens, luciferase read after 6 h. As for the experimental part: NF-κB signaling pathway inhibitory activity was evaluated according to the previously reported protocol. Stable HEK293/NF-κB cells were plated into 384-well plates at a concentration of approximate 2500 cells per well. After culturing overnight, compounds were added to the medium at a final concentration of 0.1 μg/mL. HEK293/NF-κB cells were seeded into 96-well cell culture plates (Corning, NY, USA) and allowed to grow for 24 h. The cells were then treated with compounds, followed by stimulation with TNF-α. 6 h later, the luciferase substrate was added to each well, and the released luciferin signal was detected using an EnVision microplate reader. The IC50 was calculated with Prism 4 software (Graphpad, San Diego, CA) from the nonlinear curve fitting of the percentage of inhibition (% inhibition) versus the inhibitor concentration [I] by using the following equation: % inhibition = 100/(1 + [IC50/[I]]^k), where k is the Hill coefficient.
For orientation: Reporter assays use an easily measured gene product as a stand-in for the process of interest.

For assay [2], the target named is T1, recombinant PTP1B catalytic domain (Homo sapiens, UniProt P18031).
T1 construct: The recombinant PTP1B catalytic domain was expressed and purified according to a previous report; made in house
T1 sequence (P18031 3-277 limits assumed): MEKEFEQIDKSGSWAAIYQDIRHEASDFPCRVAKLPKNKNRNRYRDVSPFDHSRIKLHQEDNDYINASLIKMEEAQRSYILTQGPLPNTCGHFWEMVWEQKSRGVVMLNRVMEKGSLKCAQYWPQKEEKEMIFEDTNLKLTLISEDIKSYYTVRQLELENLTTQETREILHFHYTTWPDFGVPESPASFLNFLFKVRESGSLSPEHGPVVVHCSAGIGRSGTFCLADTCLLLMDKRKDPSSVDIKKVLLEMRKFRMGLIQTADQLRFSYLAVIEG
Briefly: PTP1B inhibitory activity assay (pNPP hydrolysis). It is filed as biochemical. Particulars: pNPP substrate, 30 °C, pH 6.5; IC50 ≥ 50 μM was considered inactive. The method, then: The recombinant PTP1B catalytic domain was expressed and purified according to a previous report. The enzymatic activities of the PTP1B catalytic domain were determined at 30 °C by monitoring the hydrolysis of pNPP. Dephosphorylation of pNPP generated the product pNP, which was monitored at an absorbance of 405 nm with an EnVision multilabel plate reader (Perkin–Elmer Life Sciences, Boston, MA). In a typical […] assay mixture containing 50 mmol/L 3-morpholinopropanesulfonic acid, pH 6.5, 2 mmol/L pNPP, and 30 nmol/L recombinant PTP1B, activities were continuously monitored and the initial rate of hydrolysis was determined by using the early linear region of the enzymatic reaction kinetic curve.

Regarding `CC(C)C[C@H](NC(=O)[C@H](Cc1ccccc1)NC(=O)c1cnccn1)B(O)O` [bortezomib, reference compound], the IC50 – broadly, the concentration needed to halve the response being measured – in assay [1] worked out at 14 µM. `Cc1cc(Br)c(C2(C)CCC(=CBr)C2C)cc1O` (stereo not shown) [compound 1, isobromolaurenisol]: the figures for the IC50 in assay [2] and in assay [1] were 18.8 µM and 19.9 µM, respectively. With `C=C1CCC(C)(c2cc(O)c(C)cc2Br)C1C` (stereo not shown) [compound 2, clalaurenol A], the IC50 in assay [2] amounted to 21.8 µM; in assay [1], 6.8 µM. In the case of `Cc1ccc(C2(C)CCC(=CBr)C2C)c(O)c1` (stereo not drawn) [compound 3, ent-laurenisol], in assay [2], the half-maximal inhibitory concentration (IC50) is over 50 µM and the “IC50 (μM) PTP1B” value is “inactive”. In the case of `Cc1cc(O)c(C2(C)CCC(=CBr)C2C)cc1Br` (stereo not shown) [compound 4, clalaurenol B], the IC50 in assay [2] amounted to 15.6 µM; in assay [1], 7.3 µM. As for `Cc1cc(Br)c([C@]2(C)CC=CC2(C)C)cc1O` [compound 5, cupalaurenol], in assay [2], the IC50 was over 50 µM. Turning to `C=C1CCC2C(C3C(C)CCC13O)C2(C)C` (stereo not shown) [compound 6, claaromadendrene], in assay [2], the IC50 is over 50 µM.

Regarding `C=C1CC[C@H]2[C@@H]([C@H]3[C@@H](C)CC[C@@]13O)C2(C)C` [compound 7, 1-hydroxyalloaromadendrene], in assay [2], the IC50 was over 50 µM. For `C/C1=C\CC(C)(C)/C=C/C[C@@]2(C)O[C@@H]2CC1` [compound 8, humulene epoxide II], the IC50 in assay [2] is over 50 µM.
